One data set has as its system HIV-1 (IIIB). Description: microbe, parasite or virus in culture. Format: cell-based.
The nature of a further data set: in vitro. To be noted: human; for CC50 at 5 days: uninfected MT-4 cells.
Where [1] appears, read: Human immunodeficiency virus 1, IIIB, MT4, 120 h, read-out: MT4 EC50 (nM).
Where [2] appears, read: Human immunodeficiency virus 1, MT4, 120 h, HIV-1 (IIIB) replication in MT-4 cells, 5 days incubation, Cell Titer Glo, read-out: MT4 EC50.

Molecules are shown by their SMILES. Read-outs that look alike come from different tables or passages of the source.

As for `COC1=NO[C@@]2(CC[C@H](C)N3C[C@H]2n2cc(C(=O)NCc4ccc(F)cc4F)c(=O)c(OC(=O)Cc4ccc(OP(=O)(O)O)cc4)c2C3=O)C1` [Compound 29, (3′S,5S,7′R)-10′-((2,4-difluorobenzyl)carbamoyl)-3-methoxy-3′-methyl-1′,11′-dioxo-1′,4′,5′,11′-tetrahydro-3′H,4H,7′H-spiro[isoxazole-5,6′-[2,7]methanopyrido[1,2-a][1,4]diazonin]-12′-yl 2-(4-(phosphonooxy)phenyl)acetate], the EC50 with HIV-1 (IIIB) (setting [1]) is 2.01 nM. For the same compound, in the data set “in vitro”, the CC50 worked out at 27.8 µM. In turn, `CCCCCCCCCCCCCC(=O)NCc1ccccc1C(=O)Oc1c2n(cc(C(=O)NCc3ccc(F)cc3F)c1=O)[C@@H]1CN(C2=O)[C@@H](C)CC[C@]12CC(OC)=NO2` [Compound 101, (3′S,5S,7′R)-10′-((2,4-difluorobenzyl)carbamoyl)-3-methoxy-3′-methyl-1′,11′-dioxo-1′,4′,5′,11′-tetrahydro-3′H,4H,7′H-spiro[isoxazole-5,6′-[2,7]methanopyrido[1,2-a][1,4]diazonin]-12′-yl 2-(tetradecanamidomethyl)benzoate] came in with a CC50 at 5 days in the data set “in vitro” not below 50 µM. In the case of `CCCCCCCCCCCCCC(=O)Oc1ccc(CC(=O)Oc2c3n(cc(C(=O)NCc4ccc(F)cc4F)c2=O)[C@@H]2CN(C3=O)[C@@H](C)CC[C@]23CC(OC)=NO3)cc1` [Compound 95, [4-[2-[(1R,10S,13S)-4-[(2,4-difluorophenyl)methylcarbamoyl]-3′-methoxy-10-methyl-5,8-dioxo-spiro[2,9-diazatricyclo[7.4.1.02,7]tetradeca-3,6-diene-13,5′-4H-isoxazole]-6-yl]oxy-2-oxo-ethyl]phenyl] tetradecanoate], in the data set on HIV-1 (IIIB) (setting [2]), the EC50 came out at 3.49 nM. In “in vitro”, this compound came in with a CC50 at 5 days not below 50 µM.

Consider `CC1=NO[C@@]2(CC[C@H](C)N3C[C@H]2n2cc(C(=O)NCc4ccc(F)cc4F)c(=O)c(OCOC(=O)CC(C)(C)c4c(CC(=O)N[C@@H](CCC(=O)O)C(=O)O)cc(C)cc4OP(=O)(O)O)c2C3=O)C1` [Compound 42, (2-(2-(4-((((3′S,5S,7′R)-10′-((2,4-difluorobenzyl)carbamoyl)-3,3′-dimethyl-1′,11′-dioxo-1′,4′,5′,11′-tetrahydro-3′H,4H,7′H-spiro[isoxazole-5,6′-[2,7]methanopyrido[1,2-a][1,4]diazonin]-12′-yl)oxy)methoxy)-2-methyl-4-oxobutan-2-yl)-5-methyl-3-(phosphonooxy)phenyl)acetyl)-L-glutamic acid], for which the EC50 with HIV-1 (IIIB) (setting [1]) came out at 1.9 nM. The compound also displayed a CC50 in “in vitro” of 15.7 µM.

For the compound `CCCCCCCCCCCCCC(=O)NCc1ccccc1C(=O)Oc1c2n(cc(C(=O)NCc3ccc(F)cc3F)c1=O)[C@@H]1CN(C2=O)[C@@H](C)CC[C@]12CC(C)=NO2` [Compound 102, (3′S,5S,7′R)-10′-((2,4-difluorobenzyl)carbamoyl)-3,3′-dimethyl-1′,11′-dioxo-1′,4′,5′,11′-tetrahydro-3′H,4H,7′H-spiro[isoxazole-5,6′-[2,7]methanopyrido[1,2-a][1,4]diazonin]-12′-yl 2-(tetradecanamidomethyl)benzoate], the CC50 at 5 days in “in vitro” came out at 31.8 µM. For the compound `COC1=NO[C@@]2(CC[C@H](C)N3C[C@H]2n2cc(C(=O)NCc4ccc(F)cc4F)c(=O)c(OCOP(=O)(O)OCc4ccccc4)c2C3=O)C1` [Compound 18, benzyl ((((3′S,5S,7′R)-10′-((2,4-difluorobenzyl)carbamoyl)-3-methoxy-3′-methyl-1′,11′-dioxo-1′,4′,5′,11′-tetrahydro-3′H,4H,7′H-spiro[isoxazole-5,6′-[2,7]methanopyrido[1,2-a][1,4]diazonin]-12′-yl)oxy)methyl) hydrogen phosphate], the EC50 in the data set on HIV-1 (IIIB) (setting [2]) was found to be 12.3 nM. This compound came in with a CC50 at 5 days in the data set “in vitro” not below 50 µM.

On to `CC1=NO[C@@]2(CC[C@H](C)N3C[C@H]2n2cc(C(=O)NCc4ccc(F)cc4F)c(=O)c(OCOC(=O)O[C@@H]4CCCC[C@@H]4OP(=O)(O)O)c2C3=O)C1` [Compound 50, (((3′S,5S,7′R)-10′-((2,4-difluorobenzyl)carbamoyl)-3,3′-dimethyl-1′,11′-dioxo-1′,4′,5′,11′-tetrahydro-3′H,4H,7′H-spiro[isoxazole-5,6′-[2,7]methanopyrido[1,2-a][1,4]diazonin]-12′-yl)oxy)methyl ((1R,2S)-2-(phosphonooxy)cyclohexyl) carbonate], for which the EC50 in the data set with HIV-1 (IIIB) (setting [2]) came to 1.69 nM. Also, the CC50 at 5 days in the data set “in vitro” was 21.6 µM.

As to `CC1=NO[C@@]2(CC[C@H](C)N3C[C@H]2n2cc(C(=O)NCc4ccc(F)cc4F)c(=O)c(OCOC(=O)N(C)c4ncccc4CN(CC(=O)N[C@@H](CC(=O)O)C(=O)O)C(=O)OCOP(=O)(O)O)c2C3=O)C1` [Compound 36, N-((2-((((((3′S,5S,7′R)-10′-((2,4-difluorobenzyl)carbamoyl)-3,3′-dimethyl-1′,11′-dioxo-1′,4′,5′,11′-tetrahydro-3′H,4H,7′H-spiro[isoxazole-5,6′-[2,7]methanopyrido[1,2-a][1,4]diazonin]-12′-yl)oxy)methoxy)carbonyl)(methyl)amino)pyridin-3-yl)methyl)-N-(((phosphonooxy)methoxy)carbonyl)glycyl-L-aspartic acid], in the data set with HIV-1 (IIIB) (setting [2]), the EC50 was determined as 3.09 nM. Moreover, the CC50 at 5 days in “in vitro” worked out at 22 µM. For the compound `COC1=NO[C@@]2(CC[C@H](C)N3C[C@H]2n2cc(C(=O)NCc4ccc(F)cc4F)c(=O)c(OCOC(=O)CC(C)(C)c4c(CC(=O)O)cc(C)cc4OP(=O)(O)O)c2C3=O)C1` [Compound 21, 2-(2-(4-((((3′S,5S,7′R)-10′-((2,4-difluorobenzyl)carbamoyl)-3-methoxy-3′-methyl-1′,11′-dioxo-1′,4′,5′,11′-tetrahydro-3′H,4H,7′H-spiro[isoxazole-5,6′-[2,7]methanopyrido[1,2-a][1,4]diazonin]-12′-yl)oxy)methoxy)-2-methyl-4-oxobutan-2-yl)-5-methyl-3-(phosphonooxy)phenyl)acetic acid], the EC50 with HIV-1 (IIIB) (setting [1]) was found to be 2.54 nM. In addition, in the data set “in vitro”, the CC50 is 12.6 µM. Consider `COC1=NO[C@@]2(CC[C@H](C)N3C[C@H]2n2cc(C(=O)NCc4ccc(F)cc4F)c(=O)c(OCOC(=O)N(C)C[C@@H]4CCCN4C(=O)OCOP(=O)(O)O)c2C3=O)C1` [Compound 16, (phosphonooxy)methyl (2S)-2-(((((((3′S,5S,7′R)-10′-((2,4-difluorobenzyl)carbamoyl)-3-methoxy-3′-methyl-1′,11′-dioxo-1′,4′,5′,11′-tetrahydro-3′H,4H,7′H-spiro[isoxazole-5,6′-[2,7]methanopyrido[1,2-a][1,4]diazonin]-12′-yl)oxy)methoxy)carbonyl)(methyl)amino)methyl)pyrrolidine-1-carboxylate], for which the EC50 with HIV-1 (IIIB) (setting [2]) amounted to 2.93 nM. Also, the CC50 at 5 days in the data set “in vitro” was 16 µM.

As to `CC1=NO[C@@]2(CC[C@H](C)N3C[C@H]2n2cc(C(=O)NCc4ccc(F)cc4F)c(=O)c(OCOC(=O)N(C)c4ncccc4CN(CC(=O)N[C@@H](CCC(=O)O)C(=O)O)C(=O)OCOP(=O)(O)O)c2C3=O)C1` [Compound 60, N-((2-((((((3′S,5S,7′R)-10′-((2,4-difluorobenzyl)carbamoyl)-3,3′-dimethyl-1′,11′-dioxo-1′,4′,5′,11′-tetrahydro-3′H,4H,7′H-spiro[isoxazole-5,6′-[2,7]methanopyrido[1,2-a][1,4]diazonin]-12′-yl)oxy)methoxy)carbonyl)(methyl)amino)pyridin-3-yl)methyl)-N-(((phosphonooxy)methoxy)carbonyl)glycyl-L-glutamic acid], the EC50 in the data set on HIV-1 (IIIB) (setting [1]) is 1.59 nM. In the data set “in vitro”, this compound displayed a CC50 of 13.8 µM.

A word on the EC50: it is the midpoint of the concentration-response curve.

The values above are taken from patent US20250127801A1, “BRIDGED TRICYCLIC CARBAMOYLPYRIDONE COMPOUNDS AND USES THEREOF” (priority 2023, published 2025).
